Laboratory results reported in patent publication US10294202B2, “Pyrrolidinones as herbicides” (FMC Corporation, priority 2013, dated 2019).
“And” between values parts separate entries of the source, which are not always exact repeats. Equal values may be shown once.

How the values were obtained:
rice = assay: Test B flooded paddy test; assay type: in vivo, Oryza sativa; conditions: 1000 g ai/ha, Flood; scale of 0 to 100 where 0 is no effect and 100 is complete control
Procedure, shortened: (§1)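 First, plants reach the 2-leaf stage; next, pots are flooded to 3 cm and compound is delivered into the water; finally, after 13 to 15 greenhouse days at constant depth, injury is graded visually from 0 to 100 against controls.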

velvetleaf = assay: Test A pre-/postemergence herbicide test; assay type: in vivo, Abutilon theophrasti; conditions: 1000 g ai/ha
Procedure, shortened: (§2)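 Greenhouse pot test with pre- and postemergence application of surfactant-containing solvent formulations. Postemergence plants were 2–10 cm, one- to two-leaf stage. Response scored visually after ~10 days, 0 (no effect) to 100 (complete control).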

sprangletop, Brdd. = assay: Test F flood (paddy) test; assay type: in vivo, Leptochloa fascicularis; conditions: 21 d, scale 0-100
Text: (§3) Three plastic pots (ca. 16-cm diameter) per rate were partially filled with sterilized Tama silt loam soil comprising a 35:50:15 ratio of sand, silt and clay and 2.6% organic matter. Separate plantings for each of the three pots were as follows. Seeds from the U.S. of monochoria (Monochoria vaginalis), sedge, umbrella (small-flower umbrella sedge, Cyperus difformis), bulrush, […] bulrush, Scirpus juncoides), and […] (purple […] coccinea), were planted into one 16-cm pot for each rate. Seeds from the U.S. of flatsedge, rice (rice flatsedge, Cyperus iria), sprangletop, Brdd. (bearded sprangletop, Leptochloa fascicularis), one stand of 9 or 10 water seeded rice seedlings (Rice, W.S. Jap, Oryza sativa cv. 'Japonica-[…]' or Rice, W.S. Ind, 'Indica'), and two stands of 3 or 4 seedlings of rice, transplanted (transplanted rice, Oryza sativa cv. 'Japonica-[…]') were planted into one 16-cm pot for each rate. Seeds from the U.S. of barnyardgrass (Echinochloa crus-galli), […] (common […], Alisma plantago-aquatica), and watergrass, late (late watergrass, Echinochloa oryzicola) were planted into one 16-cm pot for each rate. Plantings were sequential so that crop and weed species were at the 2.0 to 2.5-leaf stage at time of treatment. Potted plants were grown in a greenhouse with day/night temperature settings of 30/27° C., and supplemental balanced lighting was provided to maintain a 16-h photoperiod. Test pots were maintained in the greenhouse until test completion. At time of treatment, test pots were flooded to 3 cm above the soil surface, treated by application of test compounds directly to the paddy water, and then maintained at that water depth for the duration of the test. Effects of treatments on rice and weeds were visually evaluated by comparison to untreated controls after 21 d. Plant response ratings, summarized in Table F, are based on a scale of 0 to 100 where 0 is no effect and 100 is complete control. A dash (-) response means no test result.

ducksalad = assay: Test B flooded paddy test; assay type: in vivo, Heteranthera limosa; conditions: 1000 g ai/ha, Flood; scale of 0 to 100 where 0 is no effect and 100 is complete control
Procedure, shortened: as §1

corn = assay: Test A pre-/postemergence herbicide test; assay type: in vivo, Zea mays; conditions: 1000 g ai/ha
Procedure, shortened: as §2

pigweed = assay: Test A pre-/postemergence herbicide test; assay type: in vivo, Amaranthus retroflexus; conditions: 1000 g ai/ha
Procedure, shortened: as §2

wheat = assay: Test A pre-/postemergence herbicide test; assay type: in vivo, Triticum aestivum; conditions: 1000 g ai/ha
Procedure, shortened: as §2

barnyardgrass [1] = assay: Test B flooded paddy test; assay type: in vivo, Echinochloa crus-galli; conditions: 1000 g ai/ha, Flood; scale of 0 to 100 where 0 is no effect and 100 is complete control
Procedure, shortened: as §1

morningglory = assay: Test A pre-/postemergence herbicide test; assay type: in vivo, Ipomoea spp.; conditions: 1000 g ai/ha
Procedure, shortened: as §2

barnyardgrass [2] = assay: Test A pre-/postemergence herbicide test; assay type: in vivo, Echinochloa crus-galli; conditions: 1000 g ai/ha
Procedure, shortened: as §2

Rice, W.S. Ind = assay: Test F flood (paddy) test; assay type: in vivo, Oryza sativa Indica; conditions: 21 d, scale 0-100
Text: as §3

barnyardgrass [3] = assay: Test F flood (paddy) test; assay type: in vivo, Echinochloa crus-galli; conditions: 21 d, scale 0-100
Text: as §3

giant foxtail = assay: Test A pre-/postemergence herbicide test; assay type: in vivo, Setaria faberii; conditions: 1000 g ai/ha
Procedure, shortened: as §2

crabgrass, large = assay: Test A pre-/postemergence herbicide test; assay type: in vivo, Digitaria sanguinalis; conditions: 1000 g ai/ha
Procedure, shortened: as §2

sedge, umbrella = assay: Test B flooded paddy test; assay type: in vivo, Cyperus difformis; conditions: 1000 g ai/ha, Flood; scale of 0 to 100 where 0 is no effect and 100 is complete control
Procedure, shortened: as §1

watergrass, late = assay: Test F flood (paddy) test; assay type: in vivo, Echinochloa oryzicola; conditions: 21 d, scale 0-100
Text: as §3

rice, transplanted = assay: Test F flood (paddy) test; assay type: in vivo, Oryza sativa cv. Japonica—M202; conditions: 21 d, scale 0-100
Text: as §3

monochoria = assay: Test F flood (paddy) test; assay type: in vivo, Monochoria vaginalis; conditions: 21 d, scale 0-100
Text: as §3

[4] = system: small-flower umbrella sedge (CYPDI); assay: Test G paddy mixture test (Colby); assay type: in vivo, Cyperus difformis; conditions: applied alone, 14 d; for CYPDI Obsd. plant response rating (scale 0 to 100): flooded
Description: (§4) Seeds of small-flower umbrella […], Cyperus difformis) and […], Heteranthera limosa) were sown on the soil surface in two separate quadrants of 11-cm (4-inch) tubs filled with steam pasteurized Tama soil. Simultaneously, plantings of […], Echinochloa crus-galli) and transplanted japonica rice (ORYSA, Oryza sativa) were established in separate “plug” flats. […] Herbicide application timing was targeted at the 2.0 to 2.5 leaf stage and the plants were treated with test chemicals formulated in a non-phytotoxic solvent. Treated plants and controls were maintained in a greenhouse for 14 d, after which time all species were compared to controls and visually evaluated. Plant response ratings are summarized in Tables G1 through G12, and are based on a scale of 0 to 100 where 0 is no effect and 100 is complete control. A dash (-) response means no test result. Colby's Equation was used to determine the herbicidal effects expected from the mixtures. Colby's Equation (Colby, S. R. “Calculating Synergistic and Antagonistic Responses of Herbicide Combinations,” Weeds, 15(1), pp 20-22 (1967)) calculates the expected additive effect of herbicidal mixtures and for two active ingredients is of the form: Pa+b=Pa+Pb-(PaPb/100) where • Pa+b is the percentage effect of the mixture expected from additive contribution of the individual components: • Pa is the observed percentage effect of the first active ingredient at the same use rate as in the mixture, and • Pb is the observed percentage effect of the second active ingredient at the same use rate as in the mixture. In the following Tables, rates are shown in grams of active ingredient per […]); “Obsd.” is the observed effect. “Exp.” is the expected effect calculated from Colby's Equation.

barnyardgrass (ECHCG) = assay: Test G paddy mixture test (Colby); assay type: in vivo, Echinochloa crus-galli; conditions: applied alone, flooded, 14 d
Description: as §4

[5] = system: transplanted japonica rice (ORYSA); assay: Test G paddy mixture test (Colby); assay type: in vivo, Oryza sativa; conditions: applied alone, 100 g a.i./ha; flooded, 14 d
Description: as §4

ducksalad (HETLI) = assay: Test G paddy mixture test (Colby); assay type: in vivo, Heteranthera limosa; conditions: applied alone, 14 d; for HETLI Obsd. plant response rating (scale 0 to 100): flooded
Description: as §4

[6] = Postemergence, 0 to 100 scale (0 no effect, 100 complete control)
[7] = Preemergence, visual rating on 0 to 100 scale (0 no effect, 100 complete control), approx. 10 days

Question: What does the source list for `O=C1NCC(c2ccc(F)c(F)c2)C1C(=O)Nc1ccccc1Cl` (racemic) [Compound 99]?
Answer: Plant response rating, Rice (rice): 10; Plant response rating, Velvetleaf (velvetleaf; [6]): 10; Plant response rating, Velvetleaf (velvetleaf; [7]): 0; Plant response rating, Sprangletop, Brdd. (sprangletop, Brdd.; 125 g ai/ha): 0; Plant response rating, Sprangletop, Brdd. (sprangletop, Brdd.; 250 g ai/ha): 75; Plant response rating, Sprangletop, Brdd. (sprangletop, Brdd.; 500 g ai/ha): 85; Plant response rating, Ducksalad (ducksalad): 95; Plant response rating, Corn (corn; [6]): 20; Plant response rating, Corn (corn; [7]): 20; Plant response rating, Pigweed (pigweed; [6]): 0; Plant response rating, Pigweed (pigweed; [7]): 0; Plant response rating, Wheat (wheat; [6]): 20; Plant response rating, Wheat (wheat; [7]): 20; Plant response rating, Barnyardgrass (barnyardgrass [1]): 80; Plant response rating, Morningglory (morningglory; [6]): 10; Plant response rating, Morningglory (morningglory; [7]): 0; Plant response rating, Barnyardgrass (barnyardgrass [2]; [6]): 90; Plant response rating, Barnyardgrass (barnyardgrass [2]; [7]): 90; Plant response rating, Rice, W.S. Ind (Rice, W.S. Ind; 125 g ai/ha): 0; Plant response rating, Rice, W.S. Ind (Rice, W.S. Ind; 250 g ai/ha): 0; Plant response rating, Rice, W.S. Ind (Rice, W.S. Ind; 500 g ai/ha): 0; Plant response rating, Barnyardgrass (barnyardgrass [3]; 125 g ai/ha): 25; Plant response rating, Barnyardgrass (barnyardgrass [3]; 250 g ai/ha): 50; Plant response rating, Barnyardgrass (barnyardgrass [3]; 500 g ai/ha): 80; Plant response rating, Foxtail, Giant (giant foxtail; [6]): 90; Plant response rating, Foxtail, Giant (giant foxtail; [7]): 90; Plant response rating, Crabgrass, Large (crabgrass, large; [6]): 90; Plant response rating, Crabgrass, Large (crabgrass, large; [7]): 90; Plant response rating, Sedge, Umbrella (sedge, umbrella): 0; Plant response rating, Watergrass, Late (watergrass, late; 125 g ai/ha): 30; Plant response rating, Watergrass, Late (watergrass, late; 250 g ai/ha): 40; Plant response rating, Watergrass, Late (watergrass, late; 500 g ai/ha): 50; Plant response rating, Rice, Transplanted (rice, transplanted; 125 g ai/ha): 0; Plant response rating, Rice, Transplanted (rice, transplanted; 250 g ai/ha): 0; Plant response rating, Rice, Transplanted (rice, transplanted; 500 g ai/ha): 0; Plant response rating, Monochoria (monochoria; 125 g ai/ha): 50; Plant response rating, Monochoria (monochoria; 250 g ai/ha): 85; Plant response rating, Monochoria (monochoria; 500 g ai/ha): 95

Question: With `CCN(C(=O)n1nnn(-c2ccccc2Cl)c1=O)C1CCCCC1` [Fentrazamide] as the compound, how does the “CYPDI Obsd. plant response rating (scale 0 to 100)” value ([4]; 100 g a.i./ha) read?
Answer: 90 and 100

Question: And the “CYPDI Obsd. plant response rating (scale 0 to 100)” value ([4]; 200 g a.i./ha)?
Answer: 100

Question: And the “ECHCG Obsd. plant response rating (scale 0 to 100)” value (barnyardgrass (ECHCG); 100 g a.i./ha)?
Answer: 50 and 85

Question: And the “ECHCG Obsd. plant response rating (scale 0 to 100)” value (barnyardgrass (ECHCG); 200 g a.i./ha)?
Answer: 95 and 85

Question: And the “ORYSA Obsd. plant response rating (scale 0 to 100)” value [5]?
Answer: 0

Question: And the “HETLI Obsd. plant response rating (scale 0 to 100)” value (ducksalad (HETLI); 100 g a.i./ha)?
Answer: 85 and 100

Question: And the “HETLI Obsd. plant response rating (scale 0 to 100)” value (ducksalad (HETLI); 200 g a.i./ha)?
Answer: 100

Question: Which results are given for `CN(C(=O)COc1nc2ccccc2s1)c1ccccc1` [Mefenecet]?
Answer: CYPDI Obsd. ([4]; 300 g a.i./ha, scale 0-100): 100; HETLI Obsd. (ducksalad (HETLI); 300 g a.i./ha, scale 0-100): 100
